Laboratory results: patent US4497802A, “N-Acyl glycopeptide derivatives” (Eli Lilly and Company, priority 1983, dated 1985)

Tests used:
[1] = test system: Staphylococcus aureus X1.1; assay: MIC, standard agar-dilution assay; type: cell-based; conditions: Staphylococcus aureus X1.1; agar dilution
[2] = test system: Staphylococcus aureus V41; assay: MIC, standard agar-dilution assay; type: cell-based; conditions: Staphylococcus aureus V41, penicillin-resistant strain; agar dilution
[3] = test system: Staphylococcus aureus X400; assay: MIC, standard agar-dilution assay; type: cell-based; conditions: Staphylococcus aureus X400, methicillin-resistant strain
[4] = test system: Staphylococcus aureus S13E; type: cell-based; conditions: agar dilution
[5] = test system: Staphylococcus epidermidis EPI1; type: cell-based; conditions: Staphylococcus epidermidis EPI1; agar dilution
[6] = test system: Staphylococcus epidermidis EPI2; assay: MIC, standard agar-dilution assay; type: cell-based
[7] = test system: Streptococcus pyogenes C203; assay: MIC, standard agar-dilution assay; type: cell-based; conditions: Streptococcus pyogenes C203; agar dilution
[8] = test system: Streptococcus pneumoniae Park I; type: cell-based; conditions: agar dilution
[9] = test system: Streptococcus Group D X66; assay: MIC, standard agar-dilution assay; type: cell-based; conditions: Streptococcus Group D X66; agar dilution
Streptococcus Group 9960 = assay: MIC, standard agar-dilution assay; type: cell-based; conditions: Streptococcus Group 9960; agar dilution
[10] = test system: Haemophilus influenzae C.L.; assay: MIC, standard agar-dilution assay; type: cell-based; conditions: ampicillin-sensitive strain
[11] = test system: Haemophilus influenzae 76; assay: MIC, standard agar-dilution assay; type: cell-based; conditions: Haemophilus influenzae 76, ampicillin-resistant strain
Staphylococcus aureus = assay: ED50 in experimentally infected mice; type: in vivo; conditions: mice infected with Staphylococcus aureus; administered subcutaneously 1 and 4 hours postinfection
Streptococcus pneumoniae = assay: ED50 in experimentally infected mice; type: in vivo; conditions: mice infected with Streptococcus pneumoniae; administered subcutaneously 1 and 4 hours postinfection
Protocol: (§1) Some of the derivatives of this invention have shown in vivo antimicrobial activity against experimentally-induced infections in laboratory animals. When two doses of test compound were administered to experimentally infected mice, the activity observed was measured as an ED50 value [effective dose in mg/kg to protect 50% of the test animals: see Warren Wick, et al., J. Bacteriol. 81, 233-235 (1961)].
(§2) ^a mg/kg × 2; administered subcutaneously 1 and 4 hours

Streptococcus pyogenes = assay: ED50 in experimentally infected mice; type: in vivo; conditions: mice infected with Streptococcus pyogenes; administered subcutaneously 1 and 4 hours postinfection
Protocol: as §1, §2

Substance “N--(3,5-dichlorobenzoyl)A41030A [Example 22]” has an MIC [1] of 0.125 µg/mL, an MIC [2] of 0.125 µg/mL and an MIC [3] of 0.25 µg/mL. For the same substance, the MIC [4] was 0.25 µg/mL, the MIC [5] was 0.125 µg/mL and the MIC [6] was 0.25 µg/mL. It also gave an MIC [7] of 0.5 µg/mL, an MIC [8] of 0.5 µg/mL and an MIC [9] of 0.5 µg/mL. For the same substance, the MIC (Streptococcus Group 9960) was 0.5 µg/mL, the MIC [10] was 16 µg/mL and the MIC [11] was 8 µg/mL. For the same substance, the ED50 (Staphylococcus aureus) was < 0.31 mg/kg × 2, the ED50 (Streptococcus pneumoniae) was 41 mg/kg × 2 and the ED50 (Streptococcus pyogenes) was > 10 mg/kg × 2.
